Data taken from patent publication US7229987B2, “Multicyclic compounds for use as melanin concentrating hormone antagonists in the treatment of obesity and diabetes” (Eli Lilly and Company, priority 2002, dated 2007).
Counter-ions that a name gives are not always drawn.

| melting point [°C] | Compound |
| --- | --- |
| 46 to 46.5 | CN(C)CCCOc1ccc(-c2nnc(CSCCOc3cccc(OC(F)(F)F)c3)o2)cc1 [Example 276, [3-(4-{5-[2-(3-trifluoromethoxy-phenoxy)-ethylsulfanylmethyl]-[1,3,4]oxadiazol-2-yl}-phenoxy)-propyl]-dimethyl-amine] |
| 62 to 63 | CN(C)CCCCOc1ccc(-c2nnc(CSCCOc3ccccc3)o2)cc1 [Example 68, dimethyl-(4-{4-[5-(2-phenoxy-ethylsulfanylmethyl)-[1,3,4]oxadiazol-2-yl]-phenoxy}-butyl)-amine] |
| 77 to 80 | CN(C)CCCNC(=O)c1ccc(-c2nnc(CSCCCOc3ccccc3)o2)cc1 [Example 47, N-(3-dimethylaminopropyl)-4-[5-(3-phenoxypropylsulfanylmethyl)-[1,3,4]oxadiazol-2-yl]-benzamide] |
| 92.5 to 93.5 | CN(C)CCCOc1ccc(-c2nnc(CSCCOc3ccc(OC(F)(F)F)cc3)o2)cc1 [Example 274, [3-(4-{5-[2-(4-trifluoromethoxy-phenoxy)-ethylsulfanylmethyl]-[1,3,4]oxadiazol-2-yl}-phenoxy)-propyl]-dimethyl-amine] |
| 72 to 73 | CN(C)CCCOc1ccc(-c2nnc(CSCCOc3ccccc3)s2)cc1 [Example 59, Dimethyl-(3-{4-[5-(2-phenoxyethylsulfanylmethyl)-[1,3,4]thiadiazol-2-yl]-phenoxy}-propyl)-amine] |
| 42 to 45 | CC(C)N(CCOc1ccc(-c2nnc(CSCCOc3ccccc3)o2)cc1)C(C)C [Example 73, diisopropyl-(2-{4-[5-(2-phenoxy-ethylsulfanylmethyl)-[1,3,4]oxadiazol-2-yl]-phenoxy}-ethyl)-amine] |
| 42 to 44 | CC(C)N(CCCCOc1ccc(-c2nnc(CSCCOc3ccccc3)o2)cc1)C(C)C [Example 262, diisopropyl-(4-{4-[5-(2-phenoxy-ethylsulfanylmethyl)-[1,3,4]oxadiazol-2-yl]-phenoxy}-butyl)-amine] |
| 30 to 33 | CC(C)N(CCCOc1ccc(-c2nnc(CSCCOc3ccccc3)o2)cc1)C(C)C [Example 261, diisopropyl-(3-{4-[5-(2-phenoxy-ethylsulfanylmethyl)-[1,3,4]oxadiazol-2-yl]-phenoxy}-propyl)-amine] |
| 136 to 139 | CN(C)CCCNC(=S)Nc1ccc(-c2nnc(CSCCOc3ccccc3)o2)cc1 [Example 118, 1-(3-dimethylamino-propyl)-3-{4-[5-(2-phenoxy-ethylsulfanylmethyl)-[1,3,4]oxadiazol-2-yl]-phenyl}-thiourea] |
| 35 to 38 | CCN(CC)CCCCOc1ccc(-c2nnc(CSCCOc3ccccc3)o2)cc1 [Example 93, diethyl-(4-{4-[5-(2-phenoxy-ethylsulfanylmethyl)-[1,3,4]oxadiazol-2-yl]-phenoxy}-butyl)-amine] |
| 97 to 98 | CN(C)CCCOc1ccc(-c2nnc(CSCCOc3ccc4ccccc4c3)o2)cc1 [Example 279, [3-(4-{5-[2-(2-naphthoxy)-ethylsulfanylmethyl]-[1,3,4]oxadiazol-2-yl}-phenoxy)-propyl]-dimethyl-amine] |
| 32 to 35 | CCN(CC)CCOc1ccc(-c2nnc(CSCCOc3ccccc3)o2)cc1 [Example 85, diethyl-(2-{4-[5-(2-phenoxy-ethylsulfanylmethyl)-[1,3,4]oxadiazol-2-yl]-phenoxy}-ethyl)-amine] |
| 94 to 100 | CN(C)CCNC(=O)c1ccc(-c2nnc(CSCCOc3ccccc3)o2)cc1 [Example 54, N-(2-dimethylaminoethyl)-4-[5-(2-phenoxyethylsulfanylmethyl)-[1,3,4]oxadiazol-2-yl]-benzamide] |
| 77.5 to 78 | COc1ccc(OCCSCc2nnc(-c3ccc(OCCCN(C)C)cc3)o2)cc1 [Example 277, [3-(4-{5-[2-(4-methoxy-phenoxy)-ethylsulfanylmethyl]-[1,3,4]oxadiazol-2-yl}-phenoxy)-propyl]-dimethyl-amine] |
| 55 to 55.5 | CN(C)CCCOc1ccc(-c2nnc(CSCCOc3ccccc3OC(F)(F)F)o2)cc1 [Example 275, [3-(4-{5-[2-(2-trifluoromethoxy-phenoxy)-ethylsulfanylmethyl]-[1,3,4]oxadiazol-2-yl}-phenoxy)-propyl]-dimethyl-amine] |
| 97.5 to 99 | COCCSCc1nnc(-c2ccc(OCCCN(C)C)cc2)o1 (as salt: maleate) [Example 281, (3-{4-[5-(2-methoxy-ethylsulfanylmethyl)-[1,3,4]oxadiazol-2-yl]-phenoxy}-propyl)-dimethyl-amine] |

Second part, the compound before the results:

| Compound | melting point [°C] |
| --- | --- |
| COc1cc(-c2nnc(CSCCOc3ccccc3)o2)ccc1OCCCN(C)C.O=C(O)/C=C\C(=O)O [Example 284, (3-{2-methoxy-4-[5-(2-phenoxy-ethylsulfanylmethyl)-[1,3,4]oxadiazol-2-yl]-phenoxy}-propyl)-dimethyl-amine; maleic acid salt] | 114 to 116 |
| c1ccc(OCCSCc2nnc(-c3ccc(OCCCN4CCSCC4)cc3)o2)cc1 [Example 82, 4-(3-{4-[5-(2-phenoxy-ethylsulfanylmethyl)-[1,3,4]oxadiazol-2-yl]-phenoxy}-propyl)-thiomorpholine] | 85 |
| C(=C\c1ccc(-c2cnc(CSCCOc3ccccc3)o2)cc1)/CN1CCCC1 [Example 268, 2-(2-phenoxy-ethylsulfanylmethyl)-5-[4-(3-pyrrolidin-1-yl-propenyl)-phenyl]-oxazole] | 73 to 75 |
| CN(C)CCCOc1ccc(-c2nnc(CSCCOC(C)(C)C)o2)cc1 [Example 280, (3-{4-[5-(2-tert-butoxy-ethylsulfanylmethyl)-[1,3,4]oxadiazol-2-yl]-phenoxy}-propyl)-dimethyl-amine] | 84.5 to 85.5 |
| CN(C)CCCCNC(=O)c1ccccc1-c1nnc(CSCCOc2ccccc2)o1 [Example 63, N-(4-dimethylamino-butyl)-2-[5-(2-phenoxy-ethylsulfanylmethyl)-[1,3,4]oxadiazol-2-yl]-benzamide] | 62 to 65 |
| O=C(O)C(=O)O.c1ccc(OCCSCc2ncc(-c3ccc(OCCCN4CCCCCCC4)cc3)o2)cc1 [Example 267, 1-(3-{4-[2-(2-phenoxy-ethylsulfanylmethyl)-oxazol-5-yl]-phenoxy}-propyl)-azocane oxalic acid salt] | 89 to 94 |
| CN(C)CCNC(=O)c1cccc(-c2nnc(CSCCOc3ccccc3)o2)c1 [Example 60, N-(2-Dimethylamino-ethyl)3-[5-(2-phenoxy-ethylsulfanylmethyl)-[1,3,4]oxadiazol-2-yl]-benzamide] | 64 |
| c1ccc(OCCSCc2nnc(-c3ccc(OCCCCN4CCCCCC4)cc3)o2)cc1 [Example 89, 1-(4-{4-[5-(2-phenoxy-ethylsulfanylmethyl)-[1,3,4]oxadiazol-2-yl]-phenoxy}-butyl)-azepane] | 35 to 38 |
| c1ccc(OCCSCc2nnc(-c3ccc(OCCN4CCCC4)cc3)o2)cc1 [Example 76, 2-(2-phenoxy-ethylsulfanylmethyl)-5-[4-(2-pyrrolidin-1-yl-ethoxy)-phenyl]-[1,3,4]oxadiazole] | 65 |
| c1ccc(OCCSCc2nnc(-c3ccc(OCCCCN4CCOCC4)cc3)o2)cc1 [Example 92, 4-(4-{4-[5-(2-phenoxy-ethylsulfanylmethyl)-[1,3,4]oxadiazol-2-yl]-phenoxy}-butyl)-morpholine] | 64 to 67 |
| O=C(Nc1ccc(-c2nnc(CSCCOc3ccccc3)o2)cc1)N1CCCC1 [Example 103, pyrrolidine-1-carboxylic acid {4-[5-(2-phenoxy-ethylsulfanylmethyl)-[1,3,4]oxadiazol-2-yl]-phenyl}-amide] | 184 to 185 |
| CN(C)CCCOc1ccc(-c2nnc(CSCCOc3ccccc3)n2-c2ccccc2)cc1.O=C(O)C(=O)O [Example 247, Dimethyl-(3-{4-[5-(2-phenoxy-ethylsulfanylmethyl)-4-phenyl-4H-[1,2,4]triazol-3-yl]-phenoxy}-propyl)-amine, oxalic acid salt] | 120 to 123 |
| c1ccc(OCCSCc2nnc(-c3ccc(OCCCCN4CCSCC4)cc3)o2)cc1 [Example 94, 4-(4-{4-[5-(2-phenoxy-ethylsulfanylmethyl)-[1,3,4]oxadiazol-2-yl]-phenoxy}-butyl)-thiomorpholine] | 58 |
| c1ccc(OCCSCc2nnc(-c3ccc(OCCCN4CCOCC4)cc3)o2)cc1 [Example 87, 4-(3-{4-[5-(2-phenoxy-ethylsulfanylmethyl)-[1,3,4]oxadiazol-2-yl]-phenoxy}-propyl)-morpholine] | 65 |
| c1ccc2oc(Cc3nnc(-c4ccc(OCCCN5CCCCC5)cc4)o3)cc2c1 [Example 270, 1-{3-[4-(5-Benzofuran-2-yl-methyl-[1,3,4]oxadiazol-2-yl)-phenoxy]-propyl}-piperidine] | 76 to 79 |
| c1ccc(OCCSCc2nnc(-c3ccc(OCCN4CCOCC4)cc3)o2)cc1 [Example 74, 4-(2-{4-[5-(2-phenoxy-ethylsulfanylmethyl)-[1,3,4]oxadiazol-2-yl]-phenoxy}-ethyl)-morpholine] | 70 to 72 |
| CN(C)CCCOc1c(Cl)cc(-c2nnc(CSCCOc3ccccc3)o2)cc1Cl.O=C(O)/C=C/C(=O)O [Example 283, (3-{2,6-dichloro-4-[5-(2-phenoxy-ethylsulfanylmethyl)-[1,3,4]oxadiazol-2-yl]-phenoxy}-propyl)-dimethyl-amine; fumaric acid salt] | 95 to 99 |
| c1ccc(OCCSCc2nnc(-c3ccc(OCCCCN4CCCCC4)cc3)o2)cc1 [Example 81, 1-(4-{4-[5-(2-phenoxy-ethylsulfanylmethyl)-[1,3,4]oxadiazol-2-yl]-phenoxy}-butyl)-piperidine] | 57 to 62 |
| CN(C)CCNc1ccc(-c2nnc(CSCCOc3ccccc3)o2)cn1 [Example 258, N,N-dimethyl-M-{5-[5-(2-phenoxy-ethylsulfanylmethyl)-[1,3,4]oxadiazol-2-yl]-pyridin-2-yl}-ethane-1,2-diamine] | 97 to 98 |
| c1ccc(OCCSCc2ncc(-c3ccc(OCCN4CCCCCC4)cc3)o2)cc1 [Example 265, 1-(2-{4-[2-(2-phenoxy-ethylsulfanylmethyl)-oxazol-5-yl]-phenoxy}-ethyl)-azepane] | 35 to 38 |
